{
  "source": "the supplement of paper PMC10307832",
  "assay_in_all_cases": "relative viability (nuclei count vs DMSO), 5 days (fraction); higher = more cells survive",
  "key": {"[1]": {"tested_on": "ABC-1", "method_in_brief": "(§1)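 Relative viability equals treated-well nuclei counts divided by vehicle-well nuclei counts. Counts came from 4× images of lung cancer cell lines grown in 1536-well plates for 5 days after pin-tool dosing on the day after seeding. Dosing used one drug alone or a fixed anchor-drug dose plus five library-drug doses (not always all listed) in √10 steps, and values are medians of duplicate plates.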"}, "[2]": {"tested_on": "ChaGo-K-1", "method_in_brief": "as §1"}, "[3]": {"tested_on": "HCC-366", "method_in_brief": "as §1"}, "[4]": {"tested_on": "HCC-78", "method_in_brief": "as §1"}, "[5]": {"tested_on": "LC-2-ad", "method_in_brief": "as §1"}, "[6]": {"tested_on": "LOU-NH91", "method_in_brief": "as §1"}, "[7]": {"tested_on": "LU99A", "method_in_brief": "as §1"}, "[8]": {"tested_on": "NCI-H1395", "method_in_brief": "as §1"}, "[9]": {"tested_on": "NCI-H1651", "method_in_brief": "as §1"}, "[10]": {"tested_on": "NCI-H1755", "method_in_brief": "as §1"}, "[11]": {"tested_on": "NCI-H1793", "method_in_brief": "as §1"}, "[12]": {"tested_on": "NCI-H1944", "method_in_brief": "as §1"}, "[13]": {"tested_on": "NCI-H2087", "method_in_brief": "as §1"}, "[14]": {"tested_on": "NCI-H2170", "method_in_brief": "as §1"}, "[15]": {"tested_on": "NCI-H2405", "method_in_brief": "as §1"}, "[16]": {"tested_on": "NCI-H3122", "method_in_brief": "as §1"}, "[17]": {"tested_on": "NCI-H460", "method_in_brief": "as §1"}, "[18]": {"tested_on": "PC-3 [JPC-3]", "method_in_brief": "as §1"}, "[19]": {"tested_on": "RERF-LC-KJ", "method_in_brief": "as §1"}, "[20]": {"tested_on": "UMC-11", "method_in_brief": "as §1"}},
  "data": [
    {"compound": "O=c1cc(-c2cccc3c2Sc2ccccc2S3)oc(N2CCOCC2)c1", "note": "+ Nc1ncn([C@H]2C[C@H](O)[C@@H](CO)O2)c(=O)n1 [Decitabine] (partner 2 µM)", "values": [
      {"measurement": "relative viability", "setting": "[1]; first compound 0.08 µM", "value": 0.993},
      {"measurement": "relative viability", "setting": "[1]; first compound 0.253 µM", "value": 1.16},
      {"measurement": "relative viability", "setting": "[1]; first compound 0.8 µM", "value": 1.33},
      {"measurement": "relative viability", "setting": "[1]; first compound 2.53 µM", "value": 1.17},
      {"measurement": "relative viability", "setting": "[1]; first compound 8 µM", "value": 1.19},
      {"measurement": "relative viability", "setting": "[2]; first compound 0.08 µM", "value": 0.542},
      {"measurement": "relative viability", "setting": "[2]; first compound 0.253 µM", "value": 0.555},
      {"measurement": "relative viability", "setting": "[2]; first compound 0.8 µM", "value": 0.541},
      {"measurement": "relative viability", "setting": "[2]; first compound 2.53 µM", "value": 0.51},
      {"measurement": "relative viability", "setting": "[2]; first compound 8 µM", "value": 0.555},
      {"measurement": "relative viability", "setting": "[3]; first compound 0.08 µM", "value": 0.324},
      {"measurement": "relative viability", "setting": "[3]; first compound 0.253 µM", "value": 0.486},
      {"measurement": "relative viability", "setting": "[3]; first compound 0.8 µM", "value": 0.363},
      {"measurement": "relative viability", "setting": "[3]; first compound 2.53 µM", "value": 0.273},
      {"measurement": "relative viability", "setting": "[3]; first compound 8 µM", "value": 0.33},
      {"measurement": "relative viability", "setting": "[4]; first compound 0.08 µM", "value": 0.653},
      {"measurement": "relative viability", "setting": "[4]; first compound 0.253 µM", "value": 0.906},
      {"measurement": "relative viability", "setting": "[4]; first compound 0.8 µM", "value": 0.647},
      {"measurement": "relative viability", "setting": "[4]; first compound 2.53 µM", "value": 0.664},
      {"measurement": "relative viability", "setting": "[4]; first compound 8 µM", "value": 0.74},
      {"measurement": "relative viability", "setting": "[5]; first compound 0.08 µM", "value": 0.786},
      {"measurement": "relative viability", "setting": "[5]; first compound 0.253 µM", "value": 0.928},
      {"measurement": "relative viability", "setting": "[5]; first compound 0.8 µM", "value": 0.905},
      {"measurement": "relative viability", "setting": "[5]; first compound 2.53 µM", "value": 0.761},
      {"measurement": "relative viability", "setting": "[5]; first compound 8 µM", "value": 0.793},
      {"measurement": "relative viability", "setting": "[6]; first compound 0.08 µM", "value": 0.777},
      {"measurement": "relative viability", "setting": "[6]; first compound 0.253 µM", "value": 0.894},
      {"measurement": "relative viability", "setting": "[6]; first compound 0.8 µM", "value": 0.784},
      {"measurement": "relative viability", "setting": "[6]; first compound 2.53 µM", "value": 0.777},
      {"measurement": "relative viability", "setting": "[6]; first compound 8 µM", "value": 0.844},
      {"measurement": "relative viability", "setting": "[7]; first compound 0.08 µM", "value": 0.897},
      {"measurement": "relative viability", "setting": "[7]; first compound 0.253 µM", "value": 0.996},
      {"measurement": "relative viability", "setting": "[7]; first compound 0.8 µM", "value": 1.04},
      {"measurement": "relative viability", "setting": "[7]; first compound 2.53 µM", "value": 0.866},
      {"measurement": "relative viability", "setting": "[7]; first compound 8 µM", "value": 1.18},
      {"measurement": "relative viability", "setting": "[8]; first compound 0.08 µM", "value": 0.711},
      {"measurement": "relative viability", "setting": "[8]; first compound 0.253 µM", "value": 0.825},
      {"measurement": "relative viability", "setting": "[8]; first compound 0.8 µM", "value": 0.736},
      {"measurement": "relative viability", "setting": "[8]; first compound 2.53 µM", "value": 0.718},
      {"measurement": "relative viability", "setting": "[8]; first compound 8 µM", "value": 0.763},
      {"measurement": "relative viability", "setting": "[9]; first compound 0.08 µM", "value": 0.575},
      {"measurement": "relative viability", "setting": "[9]; first compound 0.253 µM", "value": 0.766},
      {"measurement": "relative viability", "setting": "[9]; first compound 0.8 µM", "value": 0.617},
      {"measurement": "relative viability", "setting": "[9]; first compound 2.53 µM", "value": 0.555},
      {"measurement": "relative viability", "setting": "[9]; first compound 8 µM", "value": 0.628},
      {"measurement": "relative viability", "setting": "[10]; first compound 0.08 µM", "value": 0.716},
      {"measurement": "relative viability", "setting": "[10]; first compound 0.253 µM", "value": 0.792},
      {"measurement": "relative viability", "setting": "[10]; first compound 0.8 µM", "value": 0.762},
      {"measurement": "relative viability", "setting": "[10]; first compound 2.53 µM", "value": 0.688},
      {"measurement": "relative viability", "setting": "[10]; first compound 8 µM", "value": 0.79},
      {"measurement": "relative viability", "setting": "[11]; first compound 0.08 µM", "value": 0.536},
      {"measurement": "relative viability", "setting": "[11]; first compound 0.253 µM", "value": 0.614},
      {"measurement": "relative viability", "setting": "[11]; first compound 0.8 µM", "value": 0.478},
      {"measurement": "relative viability", "setting": "[11]; first compound 2.53 µM", "value": 0.487},
      {"measurement": "relative viability", "setting": "[11]; first compound 8 µM", "value": 0.476},
      {"measurement": "relative viability", "setting": "[12]; first compound 0.08 µM", "value": 0.406},
      {"measurement": "relative viability", "setting": "[12]; first compound 0.253 µM", "value": 0.448},
      {"measurement": "relative viability", "setting": "[12]; first compound 0.8 µM", "value": 0.457},
      {"measurement": "relative viability", "setting": "[12]; first compound 2.53 µM", "value": 0.432},
      {"measurement": "relative viability", "setting": "[12]; first compound 8 µM", "value": 0.468},
      {"measurement": "relative viability", "setting": "[13]; first compound 0.08 µM", "value": 0.231},
      {"measurement": "relative viability", "setting": "[13]; first compound 0.253 µM", "value": 0.257},
      {"measurement": "relative viability", "setting": "[13]; first compound 0.8 µM", "value": 0.266},
      {"measurement": "relative viability", "setting": "[13]; first compound 2.53 µM", "value": 0.242},
      {"measurement": "relative viability", "setting": "[13]; first compound 8 µM", "value": 0.238},
      {"measurement": "relative viability", "setting": "[14]; first compound 0.08 µM", "value": 0.439},
      {"measurement": "relative viability", "setting": "[14]; first compound 0.253 µM", "value": 0.524},
      {"measurement": "relative viability", "setting": "[14]; first compound 0.8 µM", "value": 0.48},
      {"measurement": "relative viability", "setting": "[14]; first compound 2.53 µM", "value": 0.424},
      {"measurement": "relative viability", "setting": "[14]; first compound 8 µM", "value": 0.465},
      {"measurement": "relative viability", "setting": "[15]; first compound 0.08 µM", "value": 0.697},
      {"measurement": "relative viability", "setting": "[15]; first compound 0.253 µM", "value": 0.864},
      {"measurement": "relative viability", "setting": "[15]; first compound 0.8 µM", "value": 0.677},
      {"measurement": "relative viability", "setting": "[15]; first compound 2.53 µM", "value": 0.695},
      {"measurement": "relative viability", "setting": "[15]; first compound 8 µM", "value": 0.756},
      {"measurement": "relative viability", "setting": "[16]; first compound 0.08 µM", "value": 0.36},
      {"measurement": "relative viability", "setting": "[16]; first compound 0.253 µM", "value": 0.551},
      {"measurement": "relative viability", "setting": "[16]; first compound 0.8 µM", "value": 0.45},
      {"measurement": "relative viability", "setting": "[16]; first compound 2.53 µM", "value": 0.38},
      {"measurement": "relative viability", "setting": "[16]; first compound 8 µM", "value": 0.534},
      {"measurement": "relative viability", "setting": "[17]; first compound 0.08 µM", "value": 0.476},
      {"measurement": "relative viability", "setting": "[17]; first compound 0.253 µM", "value": 0.659},
      {"measurement": "relative viability", "setting": "[17]; first compound 0.8 µM", "value": 0.462},
      {"measurement": "relative viability", "setting": "[17]; first compound 2.53 µM", "value": 0.468},
      {"measurement": "relative viability", "setting": "[17]; first compound 8 µM", "value": 0.669},
      {"measurement": "relative viability", "setting": "[18]; first compound 0.08 µM", "value": 0.733},
      {"measurement": "relative viability", "setting": "[18]; first compound 0.253 µM", "value": 0.791},
      {"measurement": "relative viability", "setting": "[18]; first compound 0.8 µM", "value": 0.838},
      {"measurement": "relative viability", "setting": "[18]; first compound 2.53 µM", "value": 0.79},
      {"measurement": "relative viability", "setting": "[18]; first compound 8 µM", "value": 0.884},
      {"measurement": "relative viability", "setting": "[19]; first compound 0.08 µM", "value": 0.643},
      {"measurement": "relative viability", "setting": "[19]; first compound 0.253 µM", "value": 0.818},
      {"measurement": "relative viability", "setting": "[19]; first compound 0.8 µM", "value": 0.709},
      {"measurement": "relative viability", "setting": "[19]; first compound 2.53 µM", "value": 0.655},
      {"measurement": "relative viability", "setting": "[19]; first compound 8 µM", "value": 0.676},
      {"measurement": "relative viability", "setting": "[20]; first compound 0.08 µM", "value": 0.599},
      {"measurement": "relative viability", "setting": "[20]; first compound 0.253 µM", "value": 0.567},
      {"measurement": "relative viability", "setting": "[20]; first compound 0.8 µM", "value": 0.585},
      {"measurement": "relative viability", "setting": "[20]; first compound 2.53 µM", "value": 0.613},
      {"measurement": "relative viability", "setting": "[20]; first compound 8 µM", "value": 0.712}
    ]}
  ]
}
